From patent US20230295197A1, “STAT5 and STAT6 Degraders and Uses Thereof” (REGENTS OF THE UNIVERSITY OF MICHICAN, priority 2022, published 2023)
Read-outs that look alike come from different tables or passages of the source.

Columns and labels:
STAT5 = experiment: Immunoblotting (Western blot) analysis of STAT5 degradation efficiency of degraders in treated cells; assay type: cell-based
In short: (§1)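 Each data point uses roughly one million cells dosed as indicated; pellets are lysed on ice, freeze-thawed, and clarified. Reduced, denatured samples (95 °C, 5 min) run on SDS gels, then membranes receive rabbit mAbs to STAT5 or STAT6 plus mouse anti-GAPDH overnight, followed by dye-labelled secondaries for fluorescence imaging.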

STAT6 = molecular target: T1, STAT6 (Homo sapiens, UniProt P42226); experiment: Immunoblotting (Western blot) analysis of STAT6 degradation efficiency of degraders in treated cells; assay type: cell-based
T1 construct: endogenous in cells; host or cells: MOLM-16, KU-812, SKNO1, MB231, L1236
T1 sequence (P42226 1-847): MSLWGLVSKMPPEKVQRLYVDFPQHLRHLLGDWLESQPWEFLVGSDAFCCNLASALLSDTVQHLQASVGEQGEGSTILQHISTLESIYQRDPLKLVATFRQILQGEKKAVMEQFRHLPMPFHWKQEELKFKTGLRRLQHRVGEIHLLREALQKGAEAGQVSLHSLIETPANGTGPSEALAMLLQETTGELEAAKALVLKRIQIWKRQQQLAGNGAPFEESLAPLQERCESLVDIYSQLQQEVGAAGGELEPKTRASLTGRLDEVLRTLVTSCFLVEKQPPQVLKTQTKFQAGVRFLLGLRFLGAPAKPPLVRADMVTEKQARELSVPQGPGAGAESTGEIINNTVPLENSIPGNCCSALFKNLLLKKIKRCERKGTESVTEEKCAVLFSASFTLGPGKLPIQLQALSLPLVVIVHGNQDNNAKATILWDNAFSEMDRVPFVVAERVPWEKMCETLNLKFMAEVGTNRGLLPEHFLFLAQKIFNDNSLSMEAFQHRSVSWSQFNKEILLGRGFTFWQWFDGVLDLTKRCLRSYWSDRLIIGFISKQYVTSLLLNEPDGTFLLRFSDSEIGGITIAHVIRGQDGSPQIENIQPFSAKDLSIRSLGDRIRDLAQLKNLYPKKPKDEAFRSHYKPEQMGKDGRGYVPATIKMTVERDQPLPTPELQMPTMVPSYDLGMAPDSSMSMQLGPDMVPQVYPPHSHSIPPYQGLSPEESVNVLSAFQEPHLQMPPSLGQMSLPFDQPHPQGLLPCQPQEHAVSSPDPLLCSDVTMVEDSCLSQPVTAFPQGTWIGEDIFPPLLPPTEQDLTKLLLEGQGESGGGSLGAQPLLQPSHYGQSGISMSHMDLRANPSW
In short: as §1

[1] = MOLM-16 cells, numeric bound, read-out: DC50 S5 MOLM-16
[2] = MOLM-16 cells, numeric bound, read-out: DC50 S6 MOLM-16
[3] = MOLM-16 cells, class symbols, read-out: DC50 S5 MOLM-16
[4] = KU-812 cells, read-out: DC50 S5 KU-812
[5] = SKNO1 cells, read-out: DC50 S5 SKNO1

Compound | DC50 (STAT5; [1]) [nM] | DC50 (STAT6; [2]) [nM] | DC50 (STAT5; [4]) [nM] | DC50 (STAT5; [5]) [nM] | also measured
Cc1ncsc1-c1ccc([C@H](CC(=O)NCCOCCOCCC(=O)N[C@@H]2C[C@@H](C(=O)Nc3ncc(-c4ccccc4)s3)N(C(=O)[C@@H](NC(=O)c3cc4cc(C(F)(F)P(=O)(O)O)ccc4s3)C(C)(C)C)C2)NC(=O)[C@@H]2C[C@@H](O)CN2C(=O)[C@@H](NC(=O)C2(F)CC2)C(C)(C)C)cc1 [Compound 581, (difluoro(2-(((S)-1-((2S,4R)-4-((S)-1-((2S,4R)-1-((S)-2-(1-fluorocyclopropane-1-carboxamido)-3,3-dimethylbutanoyl)-4-hydroxypyrrolidin-2-yl)-3-(4-(4-methylthiazol-5-yl)phenyl)-1,5-dioxo-9,12-dioxa-2,6-diazapentadecan-15-amido)-2-((5-phenylthiazol-2-yl)carbamoyl)pyrrolidin-1-yl)-3,3-dimethyl-1-oxobutan-2-yl)carbamoyl)benzo[b]thiophen-5-yl)methyl)phosphonic acid] | > 300 | > 300 | – | – | –
CC(C)(C)C(=O)OCOP(=O)(O)C(F)(F)c1ccc2sc(C(=O)N[C@H](C(=O)N3CCC[C@H]3C(=O)N(CCOCCOCC#Cc3cccc4c3CN(C3CCC(=O)NC3=O)C4=O)c3ccc4ccccc4c3)C(C)(C)C)cc2c1 (stereo partly drawn) [Compound 678, ((((2-(((2S)-1-((2S)-2-((2-(2-((3-(2-(2,6-dioxopiperidin-3-yl)-1-oxoisoindolin-4-yl)prop-2-yn-1-yl)oxy)ethoxy)ethyl)(naphthalen-2-yl)carbamoyl)pyrrolidin-1-yl)-3,3-dimethyl-1-oxobutan-2-yl)carbamoyl)benzo[b]thiophen-5-yl)difluoromethyl)(hydroxy)phosphoryl)oxy)methyl pivalate] | > 300 | > 300 | – | – | –
CC(C)(C)[C@H](NC(=O)c1cc2cc(C(F)(F)P(=O)(O)O)ccc2s1)C(=O)N1CCC[C@H]1C(=O)N(CCC(=O)NCCCC#Cc1cccc2c1CN(C1CCC(=O)NC1=O)C2=O)c1ccc2ncsc2c1 (stereo partly drawn) [Compound 662, ((2-(((2S)-1-((2S)-2-(benzo[d]thiazol-6-yl(3-((5-(2-(2,6-dioxopiperidin-3-yl)-1-oxoisoindolin-4-yl)pent-4-yn-1-yl)amino)-3-oxopropyl)carbamoyl)pyrrolidin-1-yl)-3,3-dimethyl-1-oxobutan-2-yl)carbamoyl)benzo[b]thiophen-5-yl)difluoromethyl)phosphonic acid] | > 300 | > 300 | > 10000 | > 10000 | –
CC(C)(C)[C@H](NC(=O)c1cc2cc(C(F)(F)P(=O)(O)O)ccc2s1)C(=O)N1CCC[C@H]1C(=O)N(CC(=O)NCCCCC#Cc1cccc2c1CN(C1CCC(=O)NC1=O)C2=O)c1ccc(F)cc1 (stereo partly drawn) [Compound 640, ((2-(((2S)-1-((2S)-2-((2-((6-(2-(2,6-dioxopiperidin-3-yl)-1-oxoisoindolin-4-yl)hex-5-yn-1-yl)amino)-2-oxoethyl)(4-fluorophenyl)carbamoyl)pyrrolidin-1-yl)-3,3-dimethyl-1-oxobutan-2-yl)carbamoyl)benzo[b]thiophen-5-yl)difluoromethyl)phosphonic acid] | > 300 | – | – | – | –
CC(C)(C)[C@H](NC(=O)c1cc2cc(C(F)(F)P(=O)(O)O)ccc2s1)C(=O)N1C[C@H](OCc2ccccc2)C[C@H]1C(=O)N(CCC(=O)NCCC#Cc1cccc2c1CN(C1CCC(=O)NC1=O)C2=O)c1ccc(Br)cc1 (stereo partly drawn) [Compound 617, ((2-(((2S)-1-((2S,4R)-4-(benzyloxy)-2-((4-bromophenyl)(3-((4-(2-(2,6-dioxopiperidin-3-yl)-1-oxoisoindolin-4-yl)but-3-yn-1-yl)amino)-3-oxopropyl)carbamoyl)pyrrolidin-1-yl)-3,3-dimethyl-1-oxobutan-2-yl)carbamoyl)benzo[b]thiophen-5-yl)difluoromethyl)phosphonic acid] | > 300 | – | – | – | –

More lines, main results first:

DC50 (STAT5; [1]) [nM] | DC50 (STAT6; [2]) [nM] | DC50 (STAT5; [4]) [nM] | DC50 (STAT5; [5]) [nM] | Compound | also measured
– | > 300 | – | – | CN(CCCC#Cc1cccc2c1CN(C1CCC(=O)NC1=O)C2=O)C(=O)CCN(C(=O)[C@@H]1CCCN1C(=O)[C@@H](NC(=O)c1cc2cc(C(F)(F)P(=O)(O)OCOC(=O)C(C)(C)C)ccc2s1)C(C)(C)C)c1ccc2ccccc2c1 (stereo partly drawn) [Compound 673, ((((2-(((2S)-1-((2S)-2-((3-((5-(2-(2,6-dioxopiperidin-3-yl)-1-oxoisoindolin-4-yl)pent-4-yn-1-yl)(methyl)amino)-3-oxopropyl)(naphthalen-2-yl)carbamoyl)pyrrolidin-1-yl)-3,3-dimethyl-1-oxobutan-2-yl)carbamoyl)benzo[b]thiophen-5-yl)difluoromethyl)(hydroxy)phosphoryl)oxy)methyl pivalate] | DC50 (STAT5; [3]): < 100 nM
– | – | > 10000 | – | CC(C)(C)[C@H](NC(=O)c1cc2cc(C(F)(F)P(=O)(O)O)ccc2s1)C(=O)N1CCC[C@H]1C(=O)N(CCC(=O)NCCCCCCCCC#Cc1cccc2c1CN(C1CCC(=O)NC1=O)C2=O)c1ccc(Br)cc1 (stereo partly drawn) [Compound 403, ((2-(((2S)-1-((2S)-2-((4-bromophenyl)(3-((10-(2-(2,6-dioxopiperidin-3-yl)-1-oxoisoindolin-4-yl)dec-9-yn-1-yl)amino)-3-oxopropyl)carbamoyl)pyrrolidin-1-yl)-3,3-dimethyl-1-oxobutan-2-yl)carbamoyl)benzo[b]thiophen-5-yl)difluoromethyl)phosphonic acid] | DC50 (STAT5; [3]): 1000 to 10000 nM; DC50 (STAT6; MB231 cells, read-out: DC50 S6 MB231): > 10000 nM; DC50 (STAT6; MOLM-16 cells, class symbols, read-out: DC50 S6 MOLM-16): > 10000 nM
> 300 | – | – | > 10000 | CC(C)(C)[C@H](NC(=O)c1cc2cc(C(F)(F)P(=O)(O)O)ccc2s1)C(=O)N1CCC[C@H]1C(=O)N(CCC(=O)NCCCC#Cc1cccc2c1CN(C1CCC(=O)NC1=O)C2=O)c1ccc(C2CCOCC2)cc1 (stereo partly drawn) [Compound 651, ((2-(((2S)-1-((2S)-2-((3-((5-(2-(2,6-dioxopiperidin-3-yl)-1-oxoisoindolin-4-yl)pent-4-yn-1-yl)amino)-3-oxopropyl)(4-(tetrahydro-2H-pyran-4-yl)phenyl)carbamoyl)pyrrolidin-1-yl)-3,3-dimethyl-1-oxobutan-2-yl)carbamoyl)benzo[b]thiophen-5-yl)difluoromethyl)phosphonic acid] | –
> 300 | – | > 10000 | > 10000 | CC(C)(C)[C@H](NC(=O)c1cc2cc(C(F)(F)P(=O)(O)O)ccc2s1)C(=O)N1CCC[C@H]1C(=O)N(CCC(=O)N1CCC(C#Cc2cccc3c2CN(C2CCC(=O)NC2=O)C3=O)CC1)c1ccc(Br)cc1 (stereo partly drawn) [Compound 613, ((2-(((2S)-1-((2S)-2-((4-bromophenyl)(3-(4-((2-(2,6-dioxopiperidin-3-yl)-1-oxoisoindolin-4-yl)ethynyl)piperidin-1-yl)-3-oxopropyl)carbamoyl)pyrrolidin-1-yl)-3,3-dimethyl-1-oxobutan-2-yl)carbamoyl)benzo[b]thiophen-5-yl)difluoromethyl)phosphonic acid] | –
> 300 | – | – | 100 to 1000 | Cc1ccc(N(CCC(=O)NCCCC#Cc2cccc3c2CN(C2CCC(=O)NC2=O)C3=O)C(=O)[C@@H]2CCCN2C(=O)[C@@H](NC(=O)c2cc3cc(C(F)(F)P(=O)(O)O)ccc3s2)C(C)(C)C)cc1 (stereo partly drawn) [Compound 646, ((2-(((2S)-1-((2S)-2-((3-((5-(2-(2,6-dioxopiperidin-3-yl)-1-oxoisoindolin-4-yl)pent-4-yn-1-yl)amino)-3-oxopropyl)(p-tolyl)carbamoyl)pyrrolidin-1-yl)-3,3-dimethyl-1-oxobutan-2-yl)carbamoyl)benzo[b]thiophen-5-yl)difluoromethyl)phosphonic acid] | –
